Test results published in ChEMBL document CHEMBL4828707, “Discovery of phenyl-linked symmetric small molecules as inhibitors of the programmed cell death-1/programmed cell death-ligand 1 interaction” (Eur J Med Chem, 2021).

Legend:
[1] = target: T1, Programmed cell death protein 1/Programmed cell death 1 ligand 1 (Homo sapiens, UniProt Q9NZQ7); test: (§1) Inhibition of Tag2-PD1/Tag1-PD-L1 (unknown origin) protein-protein interaction preincubated for 15 mins followed by addition of anti-Tag1-Eu3+ and anti-Tag2-XL665 measured after 2 hrs in dark by HTRF assay; type: protein-complex assay
T1 sequence (Q15116 whole entry): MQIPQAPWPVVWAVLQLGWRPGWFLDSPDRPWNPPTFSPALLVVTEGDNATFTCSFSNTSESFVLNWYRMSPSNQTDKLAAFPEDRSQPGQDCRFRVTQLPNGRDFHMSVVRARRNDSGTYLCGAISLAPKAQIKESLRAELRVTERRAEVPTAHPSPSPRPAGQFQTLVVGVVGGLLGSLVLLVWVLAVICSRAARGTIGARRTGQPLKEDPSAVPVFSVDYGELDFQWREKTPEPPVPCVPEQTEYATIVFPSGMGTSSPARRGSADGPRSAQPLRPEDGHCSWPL
T1 sequence (Q9NZQ7 whole entry): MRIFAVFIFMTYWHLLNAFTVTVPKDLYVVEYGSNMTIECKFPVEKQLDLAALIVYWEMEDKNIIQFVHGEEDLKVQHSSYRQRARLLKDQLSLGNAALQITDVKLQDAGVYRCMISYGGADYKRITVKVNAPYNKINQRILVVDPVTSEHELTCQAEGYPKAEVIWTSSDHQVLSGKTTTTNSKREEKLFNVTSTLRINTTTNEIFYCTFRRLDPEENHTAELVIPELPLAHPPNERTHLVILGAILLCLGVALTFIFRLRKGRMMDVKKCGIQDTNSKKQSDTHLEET

[2] = target: T2, Programmed cell death protein 1/Programmed cell death 1 ligand 1 (Homo sapiens, UniProt Q15116+Q9NZQ7); test: as §1; type: protein-complex assay
T2 sequence (Q15116 whole entry): as the sequence (Q15116 whole entry) above
T2 sequence (Q9NZQ7 whole entry): as the sequence (Q9NZQ7 whole entry) above

hERG (KCNH2) = hERG (KCNH2) (Homo sapiens, UniProt Q12809); test: Inhibition of human ERG expressed in HEK293 cells at 10 uM measured by whole cell patch-clamp assay; type: cell-based; conditions: HEK293 cells that express hERG
hERG (KCNH2), sequence (Q12809 whole entry): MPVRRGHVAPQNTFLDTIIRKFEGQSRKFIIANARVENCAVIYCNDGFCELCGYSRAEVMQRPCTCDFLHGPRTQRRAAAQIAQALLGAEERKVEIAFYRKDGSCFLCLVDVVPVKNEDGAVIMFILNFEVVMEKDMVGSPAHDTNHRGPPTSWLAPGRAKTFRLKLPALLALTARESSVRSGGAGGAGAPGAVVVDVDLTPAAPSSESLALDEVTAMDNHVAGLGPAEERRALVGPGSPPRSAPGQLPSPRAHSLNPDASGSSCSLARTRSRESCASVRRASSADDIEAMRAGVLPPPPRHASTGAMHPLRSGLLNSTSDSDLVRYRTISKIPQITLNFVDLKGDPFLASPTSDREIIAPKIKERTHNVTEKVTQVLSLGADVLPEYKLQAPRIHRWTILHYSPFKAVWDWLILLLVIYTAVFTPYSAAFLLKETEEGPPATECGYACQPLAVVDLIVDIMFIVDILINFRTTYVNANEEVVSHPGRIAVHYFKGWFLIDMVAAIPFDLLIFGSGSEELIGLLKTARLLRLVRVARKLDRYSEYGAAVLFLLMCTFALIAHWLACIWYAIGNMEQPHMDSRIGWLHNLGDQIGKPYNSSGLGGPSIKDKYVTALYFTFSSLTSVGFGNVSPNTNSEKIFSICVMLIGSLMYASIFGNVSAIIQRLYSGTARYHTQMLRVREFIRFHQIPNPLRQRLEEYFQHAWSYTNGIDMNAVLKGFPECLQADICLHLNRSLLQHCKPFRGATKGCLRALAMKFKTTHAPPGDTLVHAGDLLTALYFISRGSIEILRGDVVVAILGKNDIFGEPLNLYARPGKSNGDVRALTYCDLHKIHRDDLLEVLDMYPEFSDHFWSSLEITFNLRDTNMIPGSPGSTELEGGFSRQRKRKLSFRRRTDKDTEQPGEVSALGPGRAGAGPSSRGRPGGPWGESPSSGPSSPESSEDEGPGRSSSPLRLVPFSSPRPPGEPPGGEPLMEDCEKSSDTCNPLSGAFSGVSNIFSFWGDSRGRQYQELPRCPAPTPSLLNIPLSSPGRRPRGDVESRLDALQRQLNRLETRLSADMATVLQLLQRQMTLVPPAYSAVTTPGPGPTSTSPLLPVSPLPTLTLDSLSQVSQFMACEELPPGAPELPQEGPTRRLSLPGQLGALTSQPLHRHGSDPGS

[3] = Cytotoxicity against human HPDE6c7 cells at 2 to 10 uM measured after 48 hrs by CCK8 assay; type: cell-based; conditions: hpde6c7, 48 h, dose 2-10 µM
[4] = target: T2, Programmed cell death protein 1/Programmed cell death 1 ligand 1; conditions: time 6.0 hrs
[5] = target: T1, Programmed cell death protein 1/Programmed cell death 1 ligand 1; test: Inhibition of PD1/PDL1 protein-protein interaction in human Jurkat cells overexpressing PD1 co-cultured with human Hep3B cells expressing PDL1 protein assessed as increase of TCR-mediated luminiscence measured after 6 hrs by NFAT reporter assay; type: cell-based
L02 = test: Cytotoxicity against human HL7702 cells at 2 to 10 uM measured after 48 hrs by CCK8 assay; type: cell-based; conditions: l02, 48 h, dose 2-10 µM
[6] = Cytotoxicity against human PBMC at 3 uM measured after 48 hrs by CCK8 assay

| SMILES | IC50 [1] | further results |
| --- | --- | --- |
| COc1cc(-c2cccc(-c3cccc(-c4ccc(CNC(CO)CO)c(OC)c4)c3C)c2C)ccc1CNC(CO)CO | > 1000 nM |  |
| Cc1c(-c2ccc3c(c2)CCCN(CCO)C3)cccc1-c1ccc2c(c1)OCCO2 |  | IC50 [2]: Not Active |
| Cc1c(-c2ccc3c(c2)OC(=O)N(CCO)C3)cccc1-c1ccc2c(c1)OCCO2 |  | IC50 [2]: Not Active |
| Cc1c(-c2ccc3c(c2)OCCO3)cccc1N1CCN(c2cccc(CNCCO)n2)C1=O | > 1000 nM |  |
| O=C(c1ccc(CNCCO)cc1)N1CCCc2c(-c3ccc4c(c3)OCCO4)cccc21 | > 1000 nM |  |
| Cc1c(-c2ccc(CNCCO)cn2)cccc1-c1cccc(-c2ccc(CNCCO)cn2)c1C | > 1000 nM |  |
| COc1cc(-c2cccc(-c3ccc4c(c3)OCCO4)c2C)ccc1CNCCO |  | inhibition at 10 µM (hERG (KCNH2)): 4.71%; IC50 [2]: Not Active |
| Cc1c(-c2ccc3c(c2)OCCO3)cccc1-c1nnc(-c2ccc(CNCCO)cc2)o1 | > 1000 nM |  |
| Cc1c(-c2ccc3c(c2)OCCO3)cccc1N1CCN(c2ncc(CNCCO)s2)C1=O | > 1000 nM |  |
| COc1cc(-c2cccc(-c3cccc(-c4ccc(CNCC(O)C(=O)O)c(OC)c4)c3C)c2C)ccc1CNCC(O)C(=O)O (stereo not drawn) | 4.01 nM | Activity [3]: Non-Toxic; inhibition at 10 µM (hERG (KCNH2)): 7.72%; RLU [4]: 27000; EC50 [5]: 376 nM; Activity (L02): Non-Toxic; Activity [6]: Non-Toxic |
| COc1cc(-c2cccc(-c3cccc(-c4ccc(CN5CCCCC5C(=O)O)c(OC)c4)c3C)c2C)ccc1CO (stereo not drawn) | 472 nM |  |
| O=C(c1ccc(CNCCO)cc1)n1ccc2c(-c3cccc4c3ccn4C(=O)c3ccc(CNCCO)cc3)cccc21 | 309 nM |  |
| Cc1c(-c2ccc3c(c2)OCCO3)cccc1N1CCN(c2ccc(CNCCO)cc2)C1=O | > 1000 nM |  |
| COc1cc(-c2cccc(-c3cccc(-c4ccc(CNC5CCCC5O)c(OC)c4)c3C)c2C)ccc1CNC1CCCC1O (stereo not drawn) | 36.4 nM |  |
| Cc1c(-c2ccc3c(c2)OCCO3)cccc1N1CCN(c2ccc(CNCCO)cn2)C1=O | > 1000 nM |  |
| COc1cc(-c2cccc(-c3cccc(-c4ccc(CNC5CCOCC5)c(OC)c4)c3C)c2C)ccc1CNC1CCOCC1 | 34.4 nM |  |
| Cc1c(-c2ccc3c(c2)OCCO3)cccc1-c1ccc(CNCCO)cn1 | 19.6 nM |  |
| Cc1c(-c2ccc3c(c2)OCCO3)cccc1N(C)C(=O)c1ccc(CNCCO)cn1 | 764 nM |  |
| Cc1c(NS(=O)(=O)c2ccc(CNCCO)cc2)cccc1-c1ccc2c(c1)OCCO2 | > 1000 nM |  |
| Cc1c(C(=O)Nc2ccc(CNCCO)cc2)cccc1-c1ccc2c(c1)OCCO2 | > 1000 nM |  |
| COc1cc(-c2cccc(-c3cccc(-c4ccc(CN5CC(C(=O)O)C5)c(OC)c4)c3C)c2C)ccc1CN1CC(C(=O)O)C1 | 4.23 nM | Activity [3]: Non-Toxic; inhibition at 10 µM (hERG (KCNH2)): 3.93%; RLU [4]: 35800; EC50 [5]: 104 nM; Activity (L02): Non-Toxic; Activity [6]: Non-Toxic |
| Cc1c(NC(=O)c2ccc(CNCCO)cc2)cccc1-c1ccc2c(c1)OCCO2 | > 1000 nM |  |

| SMILES | IC50 [1] | further results |
| --- | --- | --- |
| O=C(c1ccc(CNCCO)cc1)n1ccc2c(-c3ccc4c(c3)OCCO4)cccc21 | > 1000 nM |  |
| Cc1c(-c2ccc3c(c2)OCCO3)cccc1-c1ccc(CNCCO)s1 |  | IC50 [2]: Not Active |
| Cc1c(NC(=O)c2ccc(CNCCO)cn2)cccc1-c1ccc2c(c1)OCCO2 | 5.04 nM |  |
| O=C(c1ccc(CNCCO)cc1)N1CCc2c(-c3cccc4c3CCN4C(=O)c3ccc(CNCCO)cc3)cccc21 | 18.6 nM |  |
| Cc1c(NC(c2ccc(CNCCO)cc2)C(F)(F)F)cccc1-c1ccc2c(c1)OCCO2 (stereo not drawn) | > 1000 nM |  |
| COc1cc(-c2cccc(-c3cccc(-c4ccc(CNCCO)c(OC)c4)c3C)c2C)ccc1CNCCO | 48.6 nM |  |
| Cc1c(-c2ccc3c(c2)OCCO3)cccc1-c1ccc(CNCCO)o1 | 191 nM |  |
| COc1cc(-c2cccc(-c3cccc(-c4ccc(CO)c(OC)c4)c3C)c2C)ccc1CO | 481 nM |  |
| Cc1c(-c2ccc3c(c2)OCCO3)cccc1N1Cc2cc(CNCCO)ccc2C1=O | > 1000 nM |  |
| Cc1c(-c2ccc3c(c2)NCC(=O)N(CCO)C3)cccc1-c1ccc2c(c1)OCCO2 |  | IC50 [2]: Not Active |
| Cc1c(-c2ccc(CNCCO)cc2)cccc1-c1ccc2c(c1)OCCO2 | 16.2 nM | inhibition at 10 µM (hERG (KCNH2)): 98% |
| COc1cc(-c2cccc(-c3cccc(-c4ccc(CNCC5CCC(=O)N5)c(OC)c4)c3C)c2C)ccc1CNCC1CCC(=O)N1 (stereo not drawn) | 139 nM |  |
| Cc1c(Nc2cccc(-c3ccc(CNCCO)cc3)n2)cccc1-c1ccc2c(c1)OCCO2 | > 1000 nM |  |
| Cc1c(NC(=O)c2ccc(CNCCO)nc2)cccc1-c1ccc2c(c1)OCCO2 | > 1000 nM |  |
| COc1cc(-c2cccc(-c3cccc(-c4ccc(CNC(CO)C(=O)O)c(OC)c4)c3C)c2C)ccc1CNC(CO)C(=O)O (stereo not drawn) | 3.9 nM | Activity [3]: Non-Toxic; inhibition at 10 µM (hERG (KCNH2)): -0.67%; RLU [4]: 30600; EC50 [5]: 775 nM; Activity (L02): Non-Toxic; Activity [6]: Non-Toxic |
| Cc1c(-c2ccc3c(c2)OCCO3)cccc1N1CCN(c2cccc(CNCCO)c2)C1=O | > 1000 nM |  |
| Cc1c(-c2ccc3c(c2)OC(=O)N(CC(=O)O)C3)cccc1-c1ccc2c(c1)OCCO2 |  | IC50 [2]: Not Active |
| Cc1c(-c2ccc(CNCCO)cc2)cccc1-c1cccc(-c2ccc(CNCCO)cc2)c1C | 45.6 nM |  |
| COc1cc(-c2cccc(-c3cccc(-c4ccc(CNC(CO)CO)c(OC)c4)c3C)c2C)ccc1CO | 48.7 nM |  |
| O=C(c1ccc(CNCCO)cc1)N1CCc2c(-c3ccc4c(c3)OCCO4)cccc21 | 150 nM |  |
| Cc1c(Nc2cc(-c3ccc(CNCCO)cc3)ccn2)cccc1-c1ccc2c(c1)OCCO2 | > 1000 nM |  |
